According to patent US6821326B2 (Arch Chemicals, Inc., priority 2002, dated 2004):

What was measured:
[1] = Particle size analysis on a Horiba Laser light scattering particle size analyzer; format: physicochemical; conditions: commercial powder before low shear mixing into xylene dispersion (Comparative Example A)
Method: As a comparison to the dispersions of the present invention, 13 grams “LAROFLEX MP25” polymer resin (vinyl chloride-isobutyl vinyl ether copolymer, a product of BASF Corporation, Charlotte, N.C.) was dissolved into 832 grams of xylene. […] The mixture was stirred at low speed (1000 rpm) and with low shear for 0.5 hours to provide adequate mixing until a homogenous mixture was achieved.
The diluted sample was then run though a Mini Zeta Netzsch mill for 150 minutes at 2000 rpm.

[2] = rats, powder, compared with zinc pyrithione powder; cited from earlier work

On1ccccc1=S.On1ccccc1=S.[Cu] [Copper Pyrithione, copper pyrithione]
Mean Particle Size [1]: 3.09 Microns | Median Particle Size [1]: 3.40 Microns | acute inhalation toxicity [2]: more toxic than zinc pyrithione powder
